Laboratory results reported in ChEMBL document CHEMBL1201861, “Genomics of Drug Sensitity in Cancer screening data, Wellcome Trust Sanger Institute”.

Key:
Experiment in all cases: cells
T-24 = type: functional, cell-based, Homo sapiens; settings: Homo sapiens, T-24;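 note: growth inhibition of T-24 cells, read out with a cell viability assay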
Description: SANGER: Inhibition of human T-24 cell growth in a cell viability assay.

MKN-1 = type: functional, cell-based, Homo sapiens; settings: Homo sapiens, MKN-1;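 note: growth inhibition of human MKN1 cells, read out by a cell viability measurement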
Description: SANGER: Inhibition of human MKN1 cell growth in a cell viability assay.

HCT-116 = type: functional, cell-based, Homo sapiens; settings: Homo sapiens, HCT-116
Description: SANGER: Inhibition of human HCT-116 cell growth in a cell viability assay.

NB6 = type: functional, cell-based, Homo sapiens; settings: Homo sapiens, NB6;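 note: growth inhibition of NB6 cells, read out by a cell viability assay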
Description: SANGER: Inhibition of human NB6 cell growth in a cell viability assay.

SK-PN-DW = type: functional, cell-based; settings: Homo sapiens;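 note: growth inhibition measured with a viability assay on these cells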
Description: SANGER: Inhibition of human SK-PN-DW cell growth in a cell viability assay.

MKN-7 = type: functional, cell-based, Homo sapiens; settings: Homo sapiens, MKN-7;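 note: growth inhibition of MKN-7 cells, read out with a cell viability assay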
Description: SANGER: Inhibition of human MKN7 cell growth in a cell viability assay.

NCI-H1792 = type: functional, cell-based, Homo sapiens; settings: Homo sapiens, NCI-H1792;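 note: growth inhibition of human NCI-H1792 cells, read out as cell viability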
Description: SANGER: Inhibition of human NCI-H1792 cell growth in a cell viability assay.

GR-ST = type: functional, cell-based; settings: Homo sapiens
Description: SANGER: Inhibition of human GR-ST cell growth in a cell viability assay.

NCI-H2052 = type: functional, cell-based, Homo sapiens; settings: Homo sapiens, NCI-H2052;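 note: growth inhibition of NCI-H2052 cells, read out with a cell viability assay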
Description: SANGER: Inhibition of human NCI-H2052 cell growth in a cell viability assay.

NCI-H2122 = type: functional, cell-based, Homo sapiens; settings: Homo sapiens, NCI-H2122;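 note: growth inhibition of the cells, read out with a cell viability assay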
Description: SANGER: Inhibition of human NCI-H2122 cell growth in a cell viability assay.

TE-11 = type: functional, cell-based, Homo sapiens; settings: Homo sapiens, TE-11;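 note: growth inhibition of human TE-11 cells, read out by a cell viability assay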
Description: SANGER: Inhibition of human TE-11 cell growth in a cell viability assay.

CTB-1 = type: functional, cell-based; settings: Homo sapiens
Description: SANGER: Inhibition of human CTB-1 cell growth in a cell viability assay.

TK-10 = type: functional, cell-based, Homo sapiens; settings: Homo sapiens, TK-10;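 note: growth inhibition of TK-10 cells, read out in a cell viability assay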
Description: SANGER: Inhibition of human TK10 cell growth in a cell viability assay.

SW1573 = type: functional, cell-based, Homo sapiens; settings: Homo sapiens, SW1573;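 note: growth inhibition of SW1573 cells, read out with a cell viability assay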
Description: SANGER: Inhibition of human SW1573 cell growth in a cell viability assay.

S-117 = type: functional, cell-based, Homo sapiens; settings: Homo sapiens, S-117
Description: SANGER: Inhibition of human S-117 cell growth in a cell viability assay.

SW982 = type: functional, cell-based; settings: Homo sapiens;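 note: growth inhibition of SW982 cells, read out with a cell viability assay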
Description: SANGER: Inhibition of human SW982 cell growth in a cell viability assay.

Calu-3 = type: functional, cell-based, Homo sapiens; settings: Homo sapiens, Calu-3;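 note: growth inhibition of human Calu-3 cells, determined with a cell viability assay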
Description: SANGER: Inhibition of human Calu-3 cell growth in a cell viability assay.

A388 = type: functional, cell-based, Homo sapiens; settings: Homo sapiens, A388;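 note: growth inhibition of human A388 cells, read out with a cell viability assay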
Description: SANGER: Inhibition of human A388 cell growth in a cell viability assay.

NCI-H2228 = type: functional, cell-based, Homo sapiens; settings: Homo sapiens, NCI-H2228;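 note: growth inhibition of human NCI-H2228 cells, read out by a cell viability assay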
Description: SANGER: Inhibition of human NCI-H2228 cell growth in a cell viability assay.

BCPAP = type: functional, cell-based, Homo sapiens; settings: Homo sapiens, BCPAP;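 note: growth inhibition of BCPAP cells, read out in a cell viability assay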
Description: SANGER: Inhibition of human BCPAP cell growth in a cell viability assay.

KYSE-270 = type: functional, cell-based, Homo sapiens; settings: Homo sapiens, KYSE-270;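 note: cell growth inhibition measured with a viability assay in the human KYSE-270 line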
Description: SANGER: Inhibition of human KYSE-270 cell growth in a cell viability assay.

HMV-2 cell line = type: functional, cell-based, Homo sapiens; settings: Homo sapiens, HMV-2;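 note: growth inhibition of HMV-II cells, read out with a cell viability assay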
Description: SANGER: Inhibition of human HMV-II cell growth in a cell viability assay.

NB12 = type: functional, cell-based, Homo sapiens; settings: Homo sapiens, NB12;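 note: growth inhibition of human NB12 cells, read out by a cell viability assay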
Description: SANGER: Inhibition of human NB12 cell growth in a cell viability assay.

LU-139 = type: functional, cell-based; settings: Homo sapiens
Description: SANGER: Inhibition of human LU-139 cell growth in a cell viability assay.

T47D = type: functional, cell-based, Homo sapiens; settings: Homo sapiens, T47D;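 note: growth inhibition of human T47D cells, measured with a cell viability assay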
Description: SANGER: Inhibition of human T47D cell growth in a cell viability assay.

HEL = type: functional, cell-based, Homo sapiens; settings: Homo sapiens, HEL;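 note: growth inhibition of HEL cells, read out with a cell viability assay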
Description: SANGER: Inhibition of human HEL cell growth in a cell viability assay.

ES7 = type: functional, cell-based, Homo sapiens; settings: Homo sapiens, ES7;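 note: growth inhibition of cultured human ES7 cells, read out as cell viability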
Description: SANGER: Inhibition of human ES7 cell growth in a cell viability assay.

GB-1 = type: functional, cell-based, Homo sapiens; settings: Homo sapiens, GB-1;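 note: growth of GB-1 cells judged by a viability assay, IC50 marks the concentration inhibiting growth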
Description: SANGER: Inhibition of human GB-1 cell growth in a cell viability assay.

SK-HEP1 = type: functional, cell-based, Homo sapiens, SK-HEP-1; settings: Homo sapiens, SK-HEP1;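 note: cell viability readout used to quantify reduction in proliferation of human SK-HEP-1 cells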
Description: SANGER: Inhibition of human SK-HEP-1 cell growth in a cell viability assay.

no-11 = type: functional, cell-based, Homo sapiens; settings: Homo sapiens;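 note: growth inhibition of human NO-11 cells, read out with a cell viability assay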
Description: SANGER: Inhibition of human no-11 cell growth in a cell viability assay.

HOP-92 = type: functional, cell-based, Homo sapiens; settings: Homo sapiens, HOP-92;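 note: cell viability readout, with IC50 reflecting inhibition of HOP-92 cell growth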
Description: SANGER: Inhibition of human HOP-92 cell growth in a cell viability assay.

ES5 = type: functional, cell-based, Homo sapiens; settings: Homo sapiens, ES5;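 note: growth inhibition of human ES5 cells, read out by a cell viability assay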
Description: SANGER: Inhibition of human ES5 cell growth in a cell viability assay.

GOTO = type: functional, cell-based, Homo sapiens; settings: Homo sapiens, GOTO;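 note: growth inhibition of GOTO cells, read out by a cell viability assay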
Description: SANGER: Inhibition of human GOTO cell growth in a cell viability assay.

NCI-H1155 = type: functional, cell-based; settings: Homo sapiens;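 note: cell growth inhibition measured by a viability assay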
Description: SANGER: Inhibition of human NCI-H1155 cell growth in a cell viability assay.

HOS = type: functional, cell-based, Homo sapiens; settings: Homo sapiens, HOS;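 note: growth inhibition of human HOS cells, read out with a cell viability assay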
Description: SANGER: Inhibition of human HOS cell growth in a cell viability assay.

COLO-792 = type: functional, cell-based, Homo sapiens; settings: Homo sapiens, COLO-792
Description: SANGER: Inhibition of human COLO-792 cell growth in a cell viability assay.

NCI-H441 = type: functional, cell-based; settings: Homo sapiens;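 note: growth inhibition of NCI-H441 cells, read out with a cell viability assay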
Description: SANGER: Inhibition of human NCI-H441 cell growth in a cell viability assay.

HCC1954 = type: functional, cell-based, Homo sapiens; settings: Homo sapiens, HCC1954;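 note: growth inhibition of human HCC1954 cells, read out with a cell viability assay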
Description: SANGER: Inhibition of human HCC1954 cell growth in a cell viability assay.

NCI-H720 = type: functional, cell-based; settings: Homo sapiens;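 note: growth inhibition of human NCI-H720 cells determined by a cell viability assay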
Description: SANGER: Inhibition of human NCI-H720 cell growth in a cell viability assay.

HL-60 = type: functional, cell-based; settings: Homo sapiens;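 note: growth inhibition of human HL-60 cells, read out with a cell viability assay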
Description: SANGER: Inhibition of human HL-60 cell growth in a cell viability assay.

KINGS-1 = type: functional, cell-based, Homo sapiens; settings: Homo sapiens, KINGS-1;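 note: cell viability assay measuring suppression of KINGS-1 cell growth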
Description: SANGER: Inhibition of human KINGS-1 cell growth in a cell viability assay.

KP-4 = type: functional, cell-based, Homo sapiens; settings: Homo sapiens, KP-4; read-out: IC50;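 note: human KP-4 cells, with growth inhibition read out through a cell viability assay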
Description: SANGER: Inhibition of human KP-4 cell growth in a cell viability assay.

HCE-4 = type: functional, cell-based, Homo sapiens; settings: Homo sapiens, HCE-4;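 note: cell viability assay measuring inhibition of growth in the human HCE-4 cell line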
Description: SANGER: Inhibition of human HCE-4 cell growth in a cell viability assay.

ACN = type: functional, cell-based, Homo sapiens; settings: Homo sapiens, ACN;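 note: growth inhibition of the human ACN cell line, read out via cell viability testing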
Description: SANGER: Inhibition of human ACN cell growth in a cell viability assay.

SHP77 = type: functional, cell-based, Homo sapiens, SHP-77; settings: Homo sapiens, SHP77;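 note: growth inhibition of human SHP-77 cells measured by a cell viability assay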
Description: SANGER: Inhibition of human SHP-77 cell growth in a cell viability assay.

NCI-H1755 = type: functional, cell-based, Homo sapiens; settings: Homo sapiens, NCI-H1755;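 note: cell viability readout used to measure growth inhibition of NCI-H1755 cells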
Description: SANGER: Inhibition of human NCI-H1755 cell growth in a cell viability assay.

ESS-1 = type: functional, cell-based, Homo sapiens; settings: Homo sapiens, ESS-1;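 note: growth inhibition of human ESS-1 cells, read out by a cell viability assay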
Description: SANGER: Inhibition of human ESS-1 cell growth in a cell viability assay.

NCI-H1648 = type: functional, cell-based, Homo sapiens; settings: Homo sapiens, NCI-H1648;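 note: cell viability assay measuring inhibition of NCI-H1648 cell growth, from the Sanger screening data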
Description: SANGER: Inhibition of human NCI-H1648 cell growth in a cell viability assay.

SK-MEL-2 = type: functional, cell-based, Homo sapiens; settings: Homo sapiens, SK-MEL-2;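 note: growth inhibition of human SK-MEL-2 cells measured with a cell viability assay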
Description: SANGER: Inhibition of human SK-MEL-2 cell growth in a cell viability assay.

SH-4 = type: functional, cell-based, Homo sapiens; settings: Homo sapiens, SH-4;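 note: growth inhibition of SH-4 cells, read out with a cell viability assay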
Description: SANGER: Inhibition of human SH-4 cell growth in a cell viability assay.

QIMR-WIL = type: functional, cell-based; settings: Homo sapiens;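 note: growth inhibition of QIMR-WIL cells, read out with a cell viability assay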
Description: SANGER: Inhibition of human QIMR-WIL cell growth in a cell viability assay.

SNU-5 = type: functional, cell-based; settings: Homo sapiens;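 note: cell viability readout used to measure growth inhibition in human NCI-SNU-5 cells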
Description: SANGER: Inhibition of human NCI-SNU-5 cell growth in a cell viability assay.

CCOc1nc(NC(=O)Cc2cc(OC)ccc2OC)cc(N)c1C#N
IC50 (T-24): > 10 µM
IC50 (MKN-1): > 10 µM
IC50 (HCT-116): > 10 µM
IC50 (NB6): > 10 µM
IC50 (SK-PN-DW): > 10 µM
IC50 (MKN-7): > 10 µM
IC50 (NCI-H1792): > 10 µM
IC50 (GR-ST): > 10 µM
IC50 (NCI-H2052): > 10 µM
IC50 (NCI-H2122): > 10 µM
IC50 (TE-11): > 10 µM
IC50 (CTB-1): > 10 µM
IC50 (TK-10): > 10 µM
IC50 (SW1573): > 10 µM
IC50 (S-117): > 10 µM
IC50 (SW982): > 10 µM
IC50 (Calu-3): > 10 µM
IC50 (A388): > 10 µM
IC50 (NCI-H2228): > 10 µM
IC50 (BCPAP): > 10 µM
IC50 (KYSE-270): > 10 µM
IC50 (HMV-2 cell line): > 10 µM
IC50 (NB12): > 10 µM
IC50 (LU-139): > 10 µM
IC50 (T47D): > 10 µM
IC50 (HEL): > 10 µM
IC50 (ES7): > 10 µM
IC50 (GB-1): > 10 µM
IC50 (SK-HEP1): > 10 µM
IC50 (no-11): > 10 µM
IC50 (HOP-92): > 10 µM
IC50 (ES5): > 10 µM
IC50 (GOTO): > 10 µM
IC50 (NCI-H1155): > 10 µM
IC50 (HOS): > 10 µM
IC50 (COLO-792): > 10 µM
IC50 (NCI-H441): > 10 µM
IC50 (HCC1954): > 10 µM
IC50 (NCI-H720): > 10 µM
IC50 (HL-60): > 10 µM
IC50 (KINGS-1): > 10 µM
IC50 (KP-4): > 10 µM
IC50 (HCE-4): > 10 µM
IC50 (ACN): > 10 µM
IC50 (SHP77): > 10 µM
IC50 (NCI-H1755): > 10 µM
IC50 (ESS-1): > 10 µM
IC50 (NCI-H1648): > 10 µM
IC50 (SK-MEL-2): > 10 µM
IC50 (SH-4): > 10 µM
IC50 (QIMR-WIL): > 10 µM
IC50 (SNU-5): > 10 µM

CC(=O)O[C@@H]1[C@@H](OC(C)=O)[C@@H](O)[C@H](Oc2c(-c3ccc(O)cc3)oc3cc(O)cc(O)c3c2=O)O[C@H]1C
IC50 (T-24): > 10 µM
IC50 (MKN-1): > 10 µM
IC50 (HCT-116): > 10 µM
IC50 (NB6): > 10 µM
IC50 (SK-PN-DW): > 10 µM
IC50 (MKN-7): > 10 µM
IC50 (NCI-H1792): > 10 µM
IC50 (GR-ST): > 10 µM
IC50 (NCI-H2052): > 10 µM
IC50 (NCI-H2122): > 10 µM
IC50 (TE-11): > 10 µM
IC50 (CTB-1): 7.32 µM
IC50 (TK-10): > 10 µM
IC50 (SW1573): > 10 µM
IC50 (S-117): > 10 µM
IC50 (SW982): > 10 µM
IC50 (Calu-3): > 10 µM
IC50 (A388): > 10 µM
IC50 (NCI-H2228): > 10 µM
IC50 (BCPAP): > 10 µM
IC50 (KYSE-270): > 10 µM
IC50 (HMV-2 cell line): > 10 µM
IC50 (NB12): > 10 µM
IC50 (LU-139): > 10 µM
IC50 (T47D): > 10 µM
IC50 (HEL): > 10 µM
IC50 (ES7): > 10 µM
IC50 (GB-1): > 10 µM
IC50 (SK-HEP1): > 10 µM
IC50 (no-11): > 10 µM
IC50 (HOP-92): > 10 µM
IC50 (ES5): > 10 µM
IC50 (GOTO): > 10 µM
IC50 (NCI-H1155): > 10 µM
IC50 (HOS): > 10 µM
IC50 (COLO-792): > 10 µM
IC50 (NCI-H441): > 10 µM
IC50 (HCC1954): > 10 µM
IC50 (NCI-H720): > 10 µM
IC50 (HL-60): > 10 µM
IC50 (KINGS-1): > 10 µM
IC50 (KP-4): > 10 µM
IC50 (HCE-4): > 10 µM
IC50 (ACN): > 10 µM
IC50 (SHP77): > 10 µM
IC50 (NCI-H1755): > 10 µM
IC50 (ESS-1): > 10 µM
IC50 (NCI-H1648): > 10 µM
IC50 (SK-MEL-2): > 10 µM
IC50 (SH-4): > 10 µM
IC50 (QIMR-WIL): > 10 µM
IC50 (SNU-5): > 10 µM

CN(Cc1cnc2nc(N)nc(N)c2n1)c1ccc(C(=O)N[C@@H](CCC(=O)O)C(=O)O)cc1 [METHOTREXATE]
IC50 (T-24): > 0.2 µM
IC50 (MKN-1): > 0.2 µM
IC50 (HCT-116): > 0.2 µM
IC50 (NB6): > 0.2 µM
IC50 (SK-PN-DW): > 0.2 µM
IC50 (MKN-7): > 0.2 µM
IC50 (NCI-H1792): 0.114 µM
IC50 (GR-ST): 0.0363 µM
IC50 (NCI-H2052): > 0.2 µM
IC50 (NCI-H2122): 0.151 µM
IC50 (TE-11): > 0.2 µM
IC50 (CTB-1): 0.0162 µM
IC50 (TK-10): > 0.2 µM
IC50 (SW1573): > 0.2 µM
IC50 (S-117): > 0.2 µM
IC50 (SW982): > 0.2 µM
IC50 (Calu-3): > 0.2 µM
IC50 (A388): > 0.2 µM
IC50 (NCI-H2228): > 0.2 µM
IC50 (BCPAP): 0.0431 µM
IC50 (KYSE-270): 0.0521 µM
IC50 (HMV-2 cell line): > 0.2 µM
IC50 (NB12): > 0.2 µM
IC50 (LU-139): > 0.2 µM
IC50 (T47D): > 0.2 µM
IC50 (HEL): 0.0115 µM
IC50 (ES7): 0.148 µM
IC50 (GB-1): > 0.2 µM
IC50 (SK-HEP1): > 0.2 µM
IC50 (no-11): > 0.2 µM
IC50 (HOP-92): > 0.2 µM
IC50 (ES5): > 0.2 µM
IC50 (GOTO): > 0.2 µM
IC50 (NCI-H1155): > 0.2 µM
IC50 (HOS): > 0.2 µM
IC50 (COLO-792): > 0.2 µM
IC50 (NCI-H441): > 0.2 µM
IC50 (HCC1954): > 0.2 µM
IC50 (HL-60): 0.0248 µM
IC50 (KINGS-1): > 0.2 µM
IC50 (KP-4): > 0.2 µM
IC50 (HCE-4): > 0.2 µM
IC50 (ACN): > 0.2 µM
IC50 (SHP77): > 0.2 µM
IC50 (NCI-H1755): > 0.2 µM
IC50 (ESS-1): > 0.2 µM
IC50 (NCI-H1648): > 0.2 µM
IC50 (SK-MEL-2): > 0.2 µM
IC50 (SH-4): > 0.2 µM
IC50 (QIMR-WIL): 0.139 µM
IC50 (SNU-5): > 0.2 µM

Cn1cc(C2=C(c3ccc(Cl)cc3Cl)C(=O)NC2=O)c2ccccc21 [SB-216763]
IC50 (T-24): > 10 µM
IC50 (MKN-1): > 10 µM
IC50 (HCT-116): > 10 µM
IC50 (NB6): > 10 µM
IC50 (SK-PN-DW): > 10 µM
IC50 (MKN-7): > 10 µM
IC50 (NCI-H1792): > 10 µM
IC50 (GR-ST): > 10 µM
IC50 (NCI-H2052): > 10 µM
IC50 (NCI-H2122): > 10 µM
IC50 (TE-11): > 10 µM
IC50 (CTB-1): > 10 µM
IC50 (TK-10): > 10 µM
IC50 (SW1573): > 10 µM
IC50 (S-117): > 10 µM
IC50 (SW982): > 10 µM
IC50 (Calu-3): > 10 µM
IC50 (A388): > 10 µM
IC50 (NCI-H2228): > 10 µM
IC50 (BCPAP): > 10 µM
IC50 (KYSE-270): > 10 µM
IC50 (HMV-2 cell line): 7.68 µM
IC50 (NB12): > 10 µM
IC50 (LU-139): > 10 µM
IC50 (T47D): > 10 µM
IC50 (HEL): > 10 µM
IC50 (ES7): > 10 µM
IC50 (GB-1): > 10 µM
IC50 (SK-HEP1): > 10 µM
IC50 (no-11): > 10 µM
IC50 (HOP-92): > 10 µM
IC50 (ES5): > 10 µM
IC50 (GOTO): > 10 µM
IC50 (NCI-H1155): > 10 µM
IC50 (HOS): > 10 µM
IC50 (COLO-792): > 10 µM
IC50 (NCI-H441): > 10 µM
IC50 (HCC1954): > 10 µM
IC50 (HL-60): > 10 µM
IC50 (KINGS-1): > 10 µM
IC50 (KP-4): > 10 µM
IC50 (HCE-4): > 10 µM
IC50 (ACN): > 10 µM
IC50 (SHP77): > 10 µM
IC50 (NCI-H1755): > 10 µM
IC50 (ESS-1): 9.6 µM
IC50 (NCI-H1648): > 10 µM
IC50 (SK-MEL-2): > 10 µM
IC50 (SH-4): > 10 µM
IC50 (QIMR-WIL): > 10 µM
IC50 (SNU-5): > 10 µM
